Experimental data published in patent US20080009418A1, “Selective Inhibitors” (Alchemia LTD., priority 2004, published 2008).

How the values were obtained:
Human Melanocortin (MC4) = biological target: T1, Human Melanocortin (MC4) (Homo sapiens, UniProt P32245); assay: Radioligand binding, human melanocortin MC4 membranes, FlashPlate, [125I]-NDP-αMSH; conditions: compound at 10 μM; for A4: inhibition of radioligand binding: [125I]-NDP-αMSH; for A4 radioligand binding inhibition: human melanocortin MC4 membranes
T1 construct: purchased Perkin Elmer Biosignal
T1 sequence (P32245 whole entry): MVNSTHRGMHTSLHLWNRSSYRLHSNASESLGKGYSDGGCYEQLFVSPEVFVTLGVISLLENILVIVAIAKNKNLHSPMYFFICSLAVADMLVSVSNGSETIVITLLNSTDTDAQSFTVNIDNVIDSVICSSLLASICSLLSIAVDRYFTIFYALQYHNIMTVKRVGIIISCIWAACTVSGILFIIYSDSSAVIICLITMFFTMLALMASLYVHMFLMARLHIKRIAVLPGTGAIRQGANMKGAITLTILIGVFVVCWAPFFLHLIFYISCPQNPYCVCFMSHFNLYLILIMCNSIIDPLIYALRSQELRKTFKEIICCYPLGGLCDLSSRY
Method in brief: (§1)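 Cloned human receptor membranes were coated onto FlashPlate wells and incubated with radioligand and compound (added from a 0.5 mM DMSO daughter plate) for 1 hour at room temperature in the dark. Scintillation counting gave percent inhibition, with DMSO defining total and reference ligand defining non-specific binding.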

Human κ-Opioid (KOP) = biological target: T2, Human κ-Opioid (KOP) (Homo sapiens, UniProt P41145); assay: Radioligand binding, human κ-opioid (KOP) membranes, filtration, [3H]-Diprenorphine; conditions: compound at 10 μM; for A2: inhibition of radioligand binding: [3H]-Diprenorphine; for A2 radioligand binding inhibition: human κ-opioid (KOP) membranes
T2 construct: purchased Perkin Elmer Biosignal
T2 sequence (P41145 whole entry): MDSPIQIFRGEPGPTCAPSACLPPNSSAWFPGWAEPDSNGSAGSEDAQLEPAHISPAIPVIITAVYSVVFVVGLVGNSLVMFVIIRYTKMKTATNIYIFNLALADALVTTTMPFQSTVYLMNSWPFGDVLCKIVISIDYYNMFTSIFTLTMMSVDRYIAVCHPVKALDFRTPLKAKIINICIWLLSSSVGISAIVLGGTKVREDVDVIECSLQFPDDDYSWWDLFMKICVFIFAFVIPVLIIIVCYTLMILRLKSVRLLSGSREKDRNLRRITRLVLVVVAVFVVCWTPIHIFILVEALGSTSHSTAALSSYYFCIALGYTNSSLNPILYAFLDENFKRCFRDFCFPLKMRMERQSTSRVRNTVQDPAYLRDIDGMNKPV
Method in brief: (§2)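 Percent inhibition of radioligand binding measured on recombinant human membranes: NK1 with [125I]-Substance P, KOP with [3H]-Diprenorphine. Incubation 1 h at room temperature, then harvest onto 0.3% PEI-soaked filters, cold Tris-HCl pH 7.4 washes and scintillation counting; non-specific binding from reference ligand wells.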

Human δ-opioid (DOP) = biological target: T3, Human δ-opioid (DOP) (Homo sapiens, UniProt P41143); assay: Radioligand binding, human δ-opioid (DOP) membranes, FlashPlate, [3H]-Bremazocine; conditions: compound at 10 μM; for A1: inhibition of radioligand binding: [3H]-Bremazocine; for A1 radioligand binding inhibition: human δ-opioid (DOP) membranes
T3 construct: purchased Perkin Elmer Biosignal
T3 sequence (P41143 whole entry): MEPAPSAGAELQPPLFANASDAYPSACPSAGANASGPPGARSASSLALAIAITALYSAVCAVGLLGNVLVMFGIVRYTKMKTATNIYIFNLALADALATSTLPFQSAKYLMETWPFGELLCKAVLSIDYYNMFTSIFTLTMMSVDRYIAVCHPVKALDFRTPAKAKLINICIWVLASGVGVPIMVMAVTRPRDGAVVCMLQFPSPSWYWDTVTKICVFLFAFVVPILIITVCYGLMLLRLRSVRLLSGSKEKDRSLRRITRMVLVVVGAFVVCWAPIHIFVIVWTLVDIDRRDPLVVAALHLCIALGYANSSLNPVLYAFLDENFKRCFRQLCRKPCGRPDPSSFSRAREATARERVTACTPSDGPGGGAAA
Method in brief: as §1

Mouse urotensin (mUR2) = biological target: T4, Mouse urotensin (mUR2) (Mus musculus, UniProt Q8VIH9); assay: Radioligand binding, mouse urotensin mUR2 membranes, FlashPlate, [125I]-Urotensin II; conditions: compound at 10 μM; for A11: inhibition of radioligand binding: [125I]-Urotensin II; for A11 radioligand binding inhibition: mouse urotensin mUR2 membranes
T4 construct: purchased Perkin Elmer Biosignal
T4 sequence (Q8VIH9 1-385): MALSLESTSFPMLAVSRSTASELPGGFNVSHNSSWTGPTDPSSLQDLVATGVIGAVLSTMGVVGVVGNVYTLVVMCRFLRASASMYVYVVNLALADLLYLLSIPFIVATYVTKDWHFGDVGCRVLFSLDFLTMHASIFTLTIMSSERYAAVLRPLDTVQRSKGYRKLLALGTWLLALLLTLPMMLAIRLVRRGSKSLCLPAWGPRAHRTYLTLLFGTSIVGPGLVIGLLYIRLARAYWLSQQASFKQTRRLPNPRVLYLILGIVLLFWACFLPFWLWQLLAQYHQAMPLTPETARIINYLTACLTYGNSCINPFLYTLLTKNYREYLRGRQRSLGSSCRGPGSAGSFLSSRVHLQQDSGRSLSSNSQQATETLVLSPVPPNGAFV
Method in brief: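 Cloned mouse urotensin (mUR2) receptor membranes from Perkin Elmer Biosignal were immobilized in FlashPlate microplates using a proprietary coating. Each well got 19.5 μl buffer, then 0.5 μl of DMSO, reference ligand, or compound. Adding 5 μl of [125I]-Urotensin II, diluted to 5× final concentration in binding buffer, started binding. Plates were sealed with TopSeal-A and incubated 1 hour at room temperature in the dark. Wells were counted for 30 seconds each on a TopCount after a 60-second delay, and percentage inhibition was calculated.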

Human μ-opioid (MOP) = biological target: T5, Human μ-opioid (MOP) (Homo sapiens, UniProt P35372); assay: Radioligand binding, human μ-opioid (MOP) membranes, FlashPlate, [3H]-Naloxone; conditions: compound at 10 μM; for A7: inhibition of radioligand binding: [3H]-Naloxone; for A7 radioligand binding inhibition: human μ-opioid (MOP) membranes
T5 construct: purchased Perkin Elmer Biosignal
T5 sequence (P35372 whole entry): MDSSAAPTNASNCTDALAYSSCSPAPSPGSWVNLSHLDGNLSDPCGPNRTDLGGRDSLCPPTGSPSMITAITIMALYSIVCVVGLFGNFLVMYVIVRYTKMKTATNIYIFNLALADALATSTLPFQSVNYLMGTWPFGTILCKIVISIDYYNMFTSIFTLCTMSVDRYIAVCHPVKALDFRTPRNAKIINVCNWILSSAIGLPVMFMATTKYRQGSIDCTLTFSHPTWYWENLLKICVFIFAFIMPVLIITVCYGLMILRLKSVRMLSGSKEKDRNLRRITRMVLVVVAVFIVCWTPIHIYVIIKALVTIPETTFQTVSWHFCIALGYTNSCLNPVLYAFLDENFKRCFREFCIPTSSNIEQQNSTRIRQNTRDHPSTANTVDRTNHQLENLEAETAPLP
Method in brief: as §1

[1] = biological target: T6, Human neuropeptide Y (NPY-Y1) (Homo sapiens, UniProt P25929); assay: Radioligand binding, human neuropeptide Y NPY-Y1 membranes, FlashPlate, [125I]-PYY; conditions: compound at 10 μM; for A9: inhibition of radioligand binding: [125I]-PYY
T6 construct: purchased Perkin Elmer Biosignal
T6 sequence (P25929 1-384): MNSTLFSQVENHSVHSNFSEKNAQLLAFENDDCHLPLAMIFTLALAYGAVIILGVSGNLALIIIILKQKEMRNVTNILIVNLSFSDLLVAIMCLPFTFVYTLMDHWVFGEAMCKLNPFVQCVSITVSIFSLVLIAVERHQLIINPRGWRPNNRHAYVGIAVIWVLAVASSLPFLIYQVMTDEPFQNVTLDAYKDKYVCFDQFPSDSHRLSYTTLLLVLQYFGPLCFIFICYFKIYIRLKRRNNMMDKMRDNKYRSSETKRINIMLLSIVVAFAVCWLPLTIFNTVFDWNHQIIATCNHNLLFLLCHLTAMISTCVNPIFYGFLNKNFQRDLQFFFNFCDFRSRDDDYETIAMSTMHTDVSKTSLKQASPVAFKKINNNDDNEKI
Method in brief: as §1

Human neurokinin (NK1) = biological target: T7, Human neurokinin (NK1) (Homo sapiens, UniProt P25103); assay: Radioligand binding, human neurokinin NK1 membranes, filtration, [125I]-Substance P; conditions: compound at 10 μM; for A8: inhibition of radioligand binding: [125I]-Substance P; for A8 radioligand binding inhibition: human neurokinin NK1 membranes
T7 construct: purchased Perkin Elmer Biosignal
T7 sequence (P25103 whole entry): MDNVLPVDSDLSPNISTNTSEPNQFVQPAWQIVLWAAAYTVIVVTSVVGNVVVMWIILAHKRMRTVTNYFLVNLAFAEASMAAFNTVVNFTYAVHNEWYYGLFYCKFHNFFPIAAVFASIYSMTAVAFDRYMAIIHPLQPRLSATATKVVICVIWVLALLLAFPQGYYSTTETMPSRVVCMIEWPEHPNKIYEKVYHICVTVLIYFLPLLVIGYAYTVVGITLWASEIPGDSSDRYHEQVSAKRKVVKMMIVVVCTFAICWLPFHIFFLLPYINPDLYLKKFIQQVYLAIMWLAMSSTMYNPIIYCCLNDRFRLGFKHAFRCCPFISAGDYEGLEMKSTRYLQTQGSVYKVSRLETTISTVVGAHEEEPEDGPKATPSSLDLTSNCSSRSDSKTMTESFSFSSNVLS
Method in brief: as §2

Human Melanocortin (MC3) = biological target: T8, Human Melanocortin (MC3) (Homo sapiens, UniProt P41968); assay: Radioligand binding, human melanocortin MC3 membranes, FlashPlate, [125I]-NDP-αMSH; conditions: compound at 10 μM; for A3: inhibition of radioligand binding: [125I]-NDP-αMSH; for A3 radioligand binding inhibition: human melanocortin MC3 membranes
T8 construct: purchased Perkin Elmer Biosignal
T8 sequence (P41968 whole entry): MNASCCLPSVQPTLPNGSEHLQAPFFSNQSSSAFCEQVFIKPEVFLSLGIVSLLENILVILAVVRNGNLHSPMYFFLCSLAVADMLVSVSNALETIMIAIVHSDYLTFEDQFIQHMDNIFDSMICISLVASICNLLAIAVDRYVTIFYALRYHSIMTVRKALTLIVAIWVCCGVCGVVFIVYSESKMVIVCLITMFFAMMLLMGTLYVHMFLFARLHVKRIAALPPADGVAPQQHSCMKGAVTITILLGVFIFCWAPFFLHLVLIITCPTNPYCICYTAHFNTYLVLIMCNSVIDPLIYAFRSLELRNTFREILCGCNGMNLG
Method in brief: as §1

Human opioid (ORL1) = biological target: T9, Human opioid (ORL1) (Homo sapiens, UniProt P41146); assay: Radioligand binding, human opioid ORL1 membranes, FlashPlate, [125I]-Nociceptin; conditions: compound at 10 μM; for A10: inhibition of radioligand binding: [125I]-Nociceptin
T9 construct: purchased Perkin Elmer Biosignal
T9 sequence (P41146 whole entry): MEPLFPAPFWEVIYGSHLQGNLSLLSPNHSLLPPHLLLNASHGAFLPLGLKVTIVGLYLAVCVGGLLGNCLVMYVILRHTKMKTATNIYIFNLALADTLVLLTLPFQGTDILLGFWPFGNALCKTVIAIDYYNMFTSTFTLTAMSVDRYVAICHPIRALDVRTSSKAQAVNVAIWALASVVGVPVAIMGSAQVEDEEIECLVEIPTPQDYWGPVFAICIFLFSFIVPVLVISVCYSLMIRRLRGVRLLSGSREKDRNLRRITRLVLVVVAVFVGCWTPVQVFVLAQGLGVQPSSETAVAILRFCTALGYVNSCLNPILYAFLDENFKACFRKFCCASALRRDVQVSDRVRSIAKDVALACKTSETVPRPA
Method in brief: as §1

[2] = biological target: T10, Human melanin-concentrating hormone (MCH1) (Homo sapiens, UniProt Q99705); assay: Radioligand binding, human melanin-concentrating hormone MCH1 membranes, FlashPlate, [125I]-S36057; conditions: compound at 10 μM; for A6 radioligand binding inhibition: human MCH1 membranes
T10 construct: purchased Perkin Elmer Biosignal
T10 sequence (Q99705 whole entry): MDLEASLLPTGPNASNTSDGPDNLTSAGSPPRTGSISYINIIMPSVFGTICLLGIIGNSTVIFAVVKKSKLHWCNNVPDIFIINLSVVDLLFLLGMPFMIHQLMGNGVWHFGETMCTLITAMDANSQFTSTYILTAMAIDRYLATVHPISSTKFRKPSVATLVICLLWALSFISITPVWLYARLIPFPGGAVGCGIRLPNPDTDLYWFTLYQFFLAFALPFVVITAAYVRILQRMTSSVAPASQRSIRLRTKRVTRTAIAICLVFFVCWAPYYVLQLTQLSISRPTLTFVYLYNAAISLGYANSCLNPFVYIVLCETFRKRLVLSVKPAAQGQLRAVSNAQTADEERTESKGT
Method in brief: as §1

Human melanocortin (MC5) = biological target: T11, Human melanocortin (MC5) (Homo sapiens, UniProt P33032); assay: Radioligand binding, human melanocortin MC5 membranes, FlashPlate, [125I]-NDP-αMSH; conditions: compound at 10 μM; for A5: inhibition of radioligand binding: [125I]-NDP-αMSH; for A5 radioligand binding inhibition: human melanocortin MC5 membranes
T11 construct: purchased Perkin Elmer Biosignal
T11 sequence (P33032 whole entry): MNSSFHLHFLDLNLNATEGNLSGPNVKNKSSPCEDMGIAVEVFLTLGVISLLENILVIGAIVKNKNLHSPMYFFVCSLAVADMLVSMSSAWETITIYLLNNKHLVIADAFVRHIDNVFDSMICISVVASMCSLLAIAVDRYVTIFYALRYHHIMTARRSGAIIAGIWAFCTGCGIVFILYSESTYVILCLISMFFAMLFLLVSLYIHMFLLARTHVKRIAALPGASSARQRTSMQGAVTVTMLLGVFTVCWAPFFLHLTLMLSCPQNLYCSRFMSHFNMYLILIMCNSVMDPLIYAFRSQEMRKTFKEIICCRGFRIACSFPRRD
Method in brief: as §1

Compound: COCC1OC(OCCc2ccccc2)C(NC(=O)CCN)C(OCc2ccccc2)C1O (stereo not shown) [compound 216]
- A4: inhibition of radioligand binding (Human Melanocortin (MC4); FlashPlate): − (“−” indicates less than 50% inhibition at 10 μM)
- A2: inhibition of radioligand binding (Human κ-Opioid (KOP); filtration): − (“−” indicates less than 50% inhibition at 10 μM)
- A1: inhibition of radioligand binding (Human δ-opioid (DOP); FlashPlate): − (“−” indicates less than 50% inhibition at 10 μM)
- A11: inhibition of radioligand binding (Mouse urotensin (mUR2); FlashPlate): − (“−” indicates less than 50% inhibition at 10 μM)
- A7: inhibition of radioligand binding (Human μ-opioid (MOP); FlashPlate): − (“−” indicates less than 50% inhibition at 10 μM)
- A9: inhibition of radioligand binding ([1]; FlashPlate): − (“−” indicates less than 50% inhibition at 10 μM)
- A8: inhibition of radioligand binding (Human neurokinin (NK1); filtration): + (“+” indicates greater than 50% inhibition at 10 μM)
- A3: inhibition of radioligand binding (Human Melanocortin (MC3); FlashPlate): − (“−” indicates less than 50% inhibition at 10 μM)
- A10: inhibition of radioligand binding (Human opioid (ORL1); FlashPlate): − (“−” indicates less than 50% inhibition at 10 μM)
- A6: inhibition of radioligand binding ([2]; [125I]-S36057, FlashPlate): − (“−” indicates less than 50% inhibition at 10 μM)
- A5: inhibition of radioligand binding (Human melanocortin (MC5); FlashPlate): − (“−” indicates less than 50% inhibition at 10 μM)

Compound: CO[C@H]1[C@H](O)[C@@H](COCc2ccccc2)OC(OCc2ccc3ccccc3c2)[C@@H]1NC(=O)CCNC(=N)N (stereo partly shown) [compound 75]
- A4 radioligand binding inhibition (Human Melanocortin (MC4)): − (“−” indicates less than 50% inhibition at 10 μM)
- A2 radioligand binding inhibition (Human κ-Opioid (KOP)): − (“−” indicates less than 50% inhibition at 10 μM)
- A1 radioligand binding inhibition (Human δ-opioid (DOP)): − (“−” indicates less than 50% inhibition at 10 μM)
- A11 radioligand binding inhibition (Mouse urotensin (mUR2)): − (“−” indicates less than 50% inhibition at 10 μM)
- A7 radioligand binding inhibition (Human μ-opioid (MOP)): + (“+” indicates greater than 50% inhibition at 10 μM)
- A9 radioligand binding inhibition ([1]; human NPY-Y1 membranes): − (“−” indicates less than 50% inhibition at 10 μM)
- A8 radioligand binding inhibition (Human neurokinin (NK1)): + (“+” indicates greater than 50% inhibition at 10 μM)
- A3 radioligand binding inhibition (Human Melanocortin (MC3)): − (“−” indicates less than 50% inhibition at 10 μM)
- A10 radioligand binding inhibition (Human opioid (ORL1); human ORL1 membranes): − (“−” indicates less than 50% inhibition at 10 μM)
- A6 radioligand binding inhibition [2]: − (“−” indicates less than 50% inhibition at 10 μM)
- A5 radioligand binding inhibition (Human melanocortin (MC5)): − (“−” indicates less than 50% inhibition at 10 μM)

Compound: NCCC(=O)NC1C(OCc2ccc3ccccc3c2)OC(COCc2ccc3ccccc3c2)C(O)C1OCc1ccc2ccccc2c1 (stereo not shown) [compound 384]
- A4: inhibition of radioligand binding (Human Melanocortin (MC4); human MC4 membranes): + (“+” indicates greater than 50% inhibition at 10 μM)
- A2: inhibition of radioligand binding (Human κ-Opioid (KOP); human KOP membranes): − (“−” indicates less than 50% inhibition at 10 μM)
- A1: inhibition of radioligand binding (Human δ-opioid (DOP); human DOP membranes): − (“−” indicates less than 50% inhibition at 10 μM)
- A11: inhibition of radioligand binding (Mouse urotensin (mUR2); mouse mUR2 membranes): − (“−” indicates less than 50% inhibition at 10 μM)
- A7: inhibition of radioligand binding (Human μ-opioid (MOP); human MOP membranes): − (“−” indicates less than 50% inhibition at 10 μM)
- A9: inhibition of radioligand binding ([1]; human NPY-Y1 membranes): − (“−” indicates less than 50% inhibition at 10 μM)
- A8: inhibition of radioligand binding (Human neurokinin (NK1); human NK1 membranes): + (“+” indicates greater than 50% inhibition at 10 μM)
- A3: inhibition of radioligand binding (Human Melanocortin (MC3); human MC3 membranes): + (“+” indicates greater than 50% inhibition at 10 μM)
- A10: inhibition of radioligand binding (Human opioid (ORL1); human ORL1 membranes): − (“−” indicates less than 50% inhibition at 10 μM)
- A6: inhibition of radioligand binding ([2]; [125I]-S36057, human MCH1 membranes): + (“+” indicates greater than 50% inhibition at 10 μM)
- A5: inhibition of radioligand binding (Human melanocortin (MC5); human MC5 membranes): + (“+” indicates greater than 50% inhibition at 10 μM)

Compound: COC[C@H]1OC(OCc2ccc(Cl)cc2)[C@H](NC(=O)CCCNC(=N)N)[C@@H](OCc2ccc3ccccc3c2)[C@@H]1O (stereo partly shown) [compound 33]
- A4 radioligand binding inhibition (Human Melanocortin (MC4)): − (“−” indicates less than 50% inhibition at 10 μM)
- A2 radioligand binding inhibition (Human κ-Opioid (KOP)): − (“−” indicates less than 50% inhibition at 10 μM)
- A1 radioligand binding inhibition (Human δ-opioid (DOP)): − (“−” indicates less than 50% inhibition at 10 μM)
- A11 radioligand binding inhibition (Mouse urotensin (mUR2)): − (“−” indicates less than 50% inhibition at 10 μM)
- A7 radioligand binding inhibition (Human μ-opioid (MOP)): − (“−” indicates less than 50% inhibition at 10 μM)
- A9 radioligand binding inhibition ([1]; human NPY-Y1 membranes): − (“−” indicates less than 50% inhibition at 10 μM)
- A8 radioligand binding inhibition (Human neurokinin (NK1)): + (“+” indicates greater than 50% inhibition at 10 μM)
- A3 radioligand binding inhibition (Human Melanocortin (MC3)): − (“−” indicates less than 50% inhibition at 10 μM)
- A10 radioligand binding inhibition (Human opioid (ORL1); human ORL1 membranes): − (“−” indicates less than 50% inhibition at 10 μM)
- A6 radioligand binding inhibition [2]: + (“+” indicates greater than 50% inhibition at 10 μM)
- A5 radioligand binding inhibition (Human melanocortin (MC5)): − (“−” indicates less than 50% inhibition at 10 μM)

Compound: CO[C@H]1[C@H](O)[C@@H](COCc2ccc(-c3ccccc3)cc2)OC(OCc2ccccc2)[C@@H]1NC(=O)CNC(=N)N (stereo partly shown) [compound 82]
- A4 radioligand binding inhibition (Human Melanocortin (MC4)): + (“+” indicates greater than 50% inhibition at 10 μM)
- A2 radioligand binding inhibition (Human κ-Opioid (KOP)): − (“−” indicates less than 50% inhibition at 10 μM)
- A1 radioligand binding inhibition (Human δ-opioid (DOP)): − (“−” indicates less than 50% inhibition at 10 μM)
- A11 radioligand binding inhibition (Mouse urotensin (mUR2)): − (“−” indicates less than 50% inhibition at 10 μM)
- A7 radioligand binding inhibition (Human μ-opioid (MOP)): − (“−” indicates less than 50% inhibition at 10 μM)
- A9 radioligand binding inhibition ([1]; human NPY-Y1 membranes): − (“−” indicates less than 50% inhibition at 10 μM)
- A8 radioligand binding inhibition (Human neurokinin (NK1)): + (“+” indicates greater than 50% inhibition at 10 μM)
- A3 radioligand binding inhibition (Human Melanocortin (MC3)): − (“−” indicates less than 50% inhibition at 10 μM)
- A10 radioligand binding inhibition (Human opioid (ORL1); human ORL1 membranes): − (“−” indicates less than 50% inhibition at 10 μM)
- A6 radioligand binding inhibition [2]: − (“−” indicates less than 50% inhibition at 10 μM)
- A5 radioligand binding inhibition (Human melanocortin (MC5)): − (“−” indicates less than 50% inhibition at 10 μM)
